This experiment has as its target Human Full Length PARG (Homo sapiens (Human), UniProt Q86W56). Nature of the experiment: PARG assay (in vitro enzyme, TR-FRET). The conditions noted are these: PARG biochemical activity; read-out: PARG_EC50_ENZYME. On the procedure:
PARG In vitro assays were conducted in a total volume of 15 ul in a standard 384 well format. 5 ul of Human Full Length PARG (Produced internally by Astra Zeneca), used at a final reaction concentration of […], was added to 5 ul of Ribosylated PARP substrate (also produced internally by Astra Zeneca) at final reaction concentration of 4.5 nM in assay buffer (50 mM Tris pH7.4, 0.1 mg/ml BSA, 3 mM EDTA, 0.4 mM EGTA, 1 mM DTT, 0.01% Tween 20, 50 mM KCl). The reaction was incubated at room temperature for 10 minutes and then 5 ul detection reagent was added. Detection Reagent consists of 42 nM MAb Anti-6HIS XL665 (CisBio: 61 HISXLB) and 2.25 nM Streptavidin Europium Cryptate (CisBio: 610SAKLB), both at 3× working stock concentrations (final concentrations of 14 nM and 0.75 nM respectively), in a detection buffer of 50 mM Tris pH7.4, BSA at 0.1 mg/ml and KF at 100 mM. Following incubation at room temperature for 60 minutes in the dark, TR-FRET signal was measured at Ex 340 and Em 665 and Em 620. A ratio was calculated as Em665/EM620x104 for each well and used to calculate percent inhibition for test compounds.
(In general: TR-FRET usually uses a lanthanide donor and a delayed reading to cut background.)

pEC50: −log10 of the molar value.

Sequence of Human Full Length PARG (Q86W56 whole entry): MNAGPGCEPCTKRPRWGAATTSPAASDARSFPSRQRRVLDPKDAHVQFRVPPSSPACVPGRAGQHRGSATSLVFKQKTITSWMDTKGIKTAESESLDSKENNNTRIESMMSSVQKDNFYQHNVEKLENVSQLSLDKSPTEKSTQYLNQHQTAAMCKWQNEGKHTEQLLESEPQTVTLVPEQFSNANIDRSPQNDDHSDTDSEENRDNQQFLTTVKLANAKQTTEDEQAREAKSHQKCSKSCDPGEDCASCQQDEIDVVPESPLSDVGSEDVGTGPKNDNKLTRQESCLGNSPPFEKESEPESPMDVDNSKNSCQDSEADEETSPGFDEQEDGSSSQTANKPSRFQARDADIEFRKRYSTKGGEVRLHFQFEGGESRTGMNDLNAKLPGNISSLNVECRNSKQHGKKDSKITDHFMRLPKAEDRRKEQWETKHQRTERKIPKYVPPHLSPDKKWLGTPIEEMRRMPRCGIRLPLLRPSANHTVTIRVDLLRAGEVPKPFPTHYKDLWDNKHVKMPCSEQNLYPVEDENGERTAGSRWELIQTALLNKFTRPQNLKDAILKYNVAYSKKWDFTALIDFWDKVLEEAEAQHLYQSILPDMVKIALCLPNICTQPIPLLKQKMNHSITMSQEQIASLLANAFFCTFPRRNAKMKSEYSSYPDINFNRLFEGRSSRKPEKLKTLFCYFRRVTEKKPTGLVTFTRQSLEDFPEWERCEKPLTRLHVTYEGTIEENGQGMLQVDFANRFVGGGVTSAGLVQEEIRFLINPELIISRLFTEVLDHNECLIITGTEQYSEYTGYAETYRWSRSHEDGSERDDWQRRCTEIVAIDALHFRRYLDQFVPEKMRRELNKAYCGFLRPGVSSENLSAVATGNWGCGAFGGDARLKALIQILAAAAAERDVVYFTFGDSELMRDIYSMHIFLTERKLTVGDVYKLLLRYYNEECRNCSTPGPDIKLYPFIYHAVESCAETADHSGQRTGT

With `Cn1c(=O)n(-c2nnc(N)s2)c2cc(S(=O)(=O)NC3(C)CC3)ccc21` [Example 81, 3-(5-Amino-1,3,4-thiadiazol-2-yl)-1-methyl-N-(1-methylcyclopropyl)-2-oxo-benzimidazole-5-sulfonamide], the pEC50 was 5.81. On to `Cc1nsc(-n2c(=O)n(C)c3ccc(S(=O)(=O)NC4(CF)CC4)cc32)n1` [Example 177], for which the pEC50 is 4.92.

Values taken from patent publication US10995073B2 (CANCER RESEARCH TECHNOLOGY LIMITED, priority 2014, dated 2021).
